# Data reported in paper PMC5201331, “Subchronic Toxicities of HZ1006, a Hydroxamate-Based Histone Deacetylase Inhibitor, in Beagle Dogs and Sprague-Dawley Rats” (International Journal of Environmental Research and Public …, 2016).
# Columns and labels:
# [1] = system: Beagle dogs; assay: Subchronic toxicity test in Beagle dogs: hematology; assay type: in vivo
# Method: HZ1006 was administered orally to dogs (four/sex/group) at doses of 80, 40, 20, 5 and 0 (control) mg/kg/day, and the dosage volume was 2 mL/kg. The dogs received test doses with the exact amounts on a weekly basis based on current body weights. […] The other dogs in the above groups were dissected on the planned days. For the other groups, half of the dogs were anatomized on d28 and the remaining half on d42.
# The following indexes were examined for the dogs used in the study, twice during the pre-dosage period and on d14, d28 and d42. The following parameters were evaluated on d28 and d42 for the rats in the study:
# Blood samples of the animals were collected in tubes containing ethylenediamine tetraacetic acid (EDTA) and tested using an ADVIA2120 Hematology Autoanalyzer (Bayer, Leverkusen, Germany). The following indexes were examined: hemoglobin concentration (Hb), red blood cell count (RBC),mean corpuscular volume (MCV), hematocrit (HCT), mean corpuscular hemoglobin concentration (MCHC), mean corpuscular hemoglobin (MCH), white blood cell count (WBC), platelet count (Plt), WBC differential counts [neutrophilcyte (Neu), eosinophilic granulocyte (Eos), basophilic leukocyte (Bas), lymphocyte (Lym), and monocyte (Mon)] and reticulocytes (Ret). The serum coagulation times of the blood samples (1.8-mL samples were mixed with 0.2 mL sodium citrate), including prothrombin time (PT), fibrinogen (FIB), activated partial thromboplastin time (APTT), and thrombin time (TT), were tested using an MC10 plus Blood Coagulation Analyzer from Shanghai San Jose Medical Products Co., Ltd. (Shanghai, China).
# [2] = system: SD rats; assay: Subchronic toxicity test in SD rats: clinical observation, body weight; assay type: in vivo; settings: for body weight reduced compared with the control group: male rats, 120 mg/kg oral daily
# Method: The rats that were judged suitable for the subchronic toxicity study were randomly divided into four groups (10 rats/sex/group). The rats received the test sample by gavage once daily for 28 days. HZ1006 was administered to the rats at doses of 120, 60, 20 and 0 (control) mg/kg, and the dosage volume was 5 mL/kg. Half of the 80 rats (half male and half female) were selected randomly according to body weight and dissected at d28. The remaining rats were dissected at d42.
# Clinical symptoms and mortality were examined at least twice daily during the 42-day period, which included any changes in reaction to treatment, behavior, illness, food consumption, and body weight. Breathing rates, rectal temperature and pupil changes in the Beagle dogs were assessed once every 2 weeks.
# [3] = dog ♀6 (80 mg/kg/day oral), d0 (pre-dose)
# [4] = dog ♀6 (80 mg/kg/day oral), d14 line (moribund, euthanized d8)
# [5] = dog ♀28 (40 mg/kg/day oral), d0 (pre-dose)
# [6] = dog ♀28 (40 mg/kg/day oral), d14 (died d16)
# [7] = dogs, 5 mg/kg/day oral, d0 (pre-dose)
# [8] = dogs, 5 mg/kg/day oral, d42 (recovery)
# [9] = dogs, 20 mg/kg/day oral, d0 (pre-dose)
# [10] = dogs, 20 mg/kg/day oral, d42 (recovery)
# [11] = dogs, 40 mg/kg/day oral, d0 (pre-dose)
# [12] = dogs, 40 mg/kg/day oral, d42 (recovery)
# [13] = dogs, 80 mg/kg/day oral, d0 (pre-dose)
# [14] = dogs, 80 mg/kg/day oral, d42 (recovery)
smiles,measurement,setting,value
CCCCCCCNc1cc(/C=C/C(=O)NO)ccc1OCCN(CC)CC [HZ1006],APTT: Activated partial thromboplastin time,[1]; [3],13.9 s
same,RET: Reticulocytes,[1]; [3],1.37%
same,APTT: Activated partial thromboplastin time,[1]; [4],48.7 s
same,RET: Reticulocytes,[1]; [4],0.14%
same,APTT: Activated partial thromboplastin time,[1]; [5],12.4 s
same,RET: Reticulocytes,[1]; [5],0.75%
same,APTT: Activated partial thromboplastin time,[1]; [6],18.5 s
same,RET: Reticulocytes,[1]; [6],0.04%
same,APTT: Activated partial thromboplastin time,[1]; [7],13.6 ± 0.6 s
same,FIB: Fibrinogen,[1]; [7],2.25 ± 0.37 g/L
same,HCT: Hematocrit,[1]; [7],43.0 ± 2.6%
same,HGB: Hemoglobin concentration,[1]; [7],139 ± 8 g/L
same,MON: Monocyte,[1]; [7],4.4 ± 1.6%
same,RBC: Red blood cell count,[1]; [7],6.31 ± 0.45 ×10^12/L
same,RET: Reticulocytes,[1]; [7],0.77 ± 0.38%
same,APTT: Activated partial thromboplastin time,"[1]; dogs, 5 mg/kg/day oral, d14",13.2 ± 0.6 s
same,FIB: Fibrinogen,"[1]; dogs, 5 mg/kg/day oral, d14",2.53 ± 0.46 g/L
same,HCT: Hematocrit,"[1]; dogs, 5 mg/kg/day oral, d14",41.8 ± 2.7%
same,HGB: Hemoglobin concentration,"[1]; dogs, 5 mg/kg/day oral, d14",138 ± 9 g/L
same,MON: Monocyte,"[1]; dogs, 5 mg/kg/day oral, d14",4.2 ± 1.0%
same,RBC: Red blood cell count,"[1]; dogs, 5 mg/kg/day oral, d14",6.23 ± 0.46 ×10^12/L
same,RET: Reticulocytes,"[1]; dogs, 5 mg/kg/day oral, d14",0.62 ± 0.29%
same,APTT: Activated partial thromboplastin time,"[1]; dogs, 5 mg/kg/day oral, d28",13.1 ± 0.5 s
same,FIB: Fibrinogen,"[1]; dogs, 5 mg/kg/day oral, d28",2.56 ± 0.40 g/L
same,HCT: Hematocrit,"[1]; dogs, 5 mg/kg/day oral, d28",41.6 ± 2.4%
same,HGB: Hemoglobin concentration,"[1]; dogs, 5 mg/kg/day oral, d28",135 ± 8 g/L
same,MON: Monocyte,"[1]; dogs, 5 mg/kg/day oral, d28",4.4 ± 1.4%
same,RBC: Red blood cell count,"[1]; dogs, 5 mg/kg/day oral, d28",6.22 ± 0.43 ×10^12/L
same,RET: Reticulocytes,"[1]; dogs, 5 mg/kg/day oral, d28",0.49 ± 0.23%
same,APTT: Activated partial thromboplastin time,[1]; [8],13.4 ± 0.4 s
same,FIB: Fibrinogen,[1]; [8],2.89 ± 0.60 g/L
same,HCT: Hematocrit,[1]; [8],41.0 ± 1.8%
same,HGB: Hemoglobin concentration,[1]; [8],134 ± 7 g/L
same,MON: Monocyte,[1]; [8],4.0 ± 1.2%
same,RBC: Red blood cell count,[1]; [8],6.21 ± 0.36 ×10^12/L
same,RET: Reticulocytes,[1]; [8],0.61 ± 0.22%
same,APTT: Activated partial thromboplastin time,[1]; [9],12.4 ± 0.3 s
same,FIB: Fibrinogen,[1]; [9],4.07 ± 0.94 g/L
same,HCT: Hematocrit,[1]; [9],42.2 ± 3.9%
same,HGB: Hemoglobin concentration,[1]; [9],142 ± 13 g/L
same,MON: Monocyte,[1]; [9],4.7 ± 1.3%
same,RBC: Red blood cell count,[1]; [9],6.20 ± 0.58 ×10^12/L
same,RET: Reticulocytes,[1]; [9],0.96 ± 0.24%
same,APTT: Activated partial thromboplastin time,"[1]; dogs, 20 mg/kg/day oral, d14",12.5 ± 0.5 s
same,FIB: Fibrinogen,"[1]; dogs, 20 mg/kg/day oral, d14",4.30 ± 1.17 g/L
same,HCT: Hematocrit,"[1]; dogs, 20 mg/kg/day oral, d14",36.9 ± 2.2 %
same,HGB: Hemoglobin concentration,"[1]; dogs, 20 mg/kg/day oral, d14",118 ± 7 g/L
same,MON: Monocyte,"[1]; dogs, 20 mg/kg/day oral, d14",8.0 ± 2.3 %
same,RBC: Red blood cell count,"[1]; dogs, 20 mg/kg/day oral, d14",5.57 ± 0.30 ×10^12/L
same,RET: Reticulocytes,"[1]; dogs, 20 mg/kg/day oral, d14",0.53 ± 0.23 %
same,APTT: Activated partial thromboplastin time,"[1]; dogs, 20 mg/kg/day oral, d28",12.0 ± 0.7 s
same,FIB: Fibrinogen,"[1]; dogs, 20 mg/kg/day oral, d28",4.48 ± 1.68 g/L
same,HCT: Hematocrit,"[1]; dogs, 20 mg/kg/day oral, d28",36.6 ± 1.0 %
same,HGB: Hemoglobin concentration,"[1]; dogs, 20 mg/kg/day oral, d28",118 ± 3 g/L
same,MON: Monocyte,"[1]; dogs, 20 mg/kg/day oral, d28",9.0 ± 1.4 %
same,RBC: Red blood cell count,"[1]; dogs, 20 mg/kg/day oral, d28",5.57 ± 0.16 ×10^12/L
same,RET: Reticulocytes,"[1]; dogs, 20 mg/kg/day oral, d28",0.54 ± 0.19 %
same,APTT: Activated partial thromboplastin time,[1]; [10],12.8 ± 0.3 s
same,FIB: Fibrinogen,[1]; [10],4.26 ± 0.49 g/L
same,HCT: Hematocrit,[1]; [10],39.4 ± 1.7%
same,HGB: Hemoglobin concentration,[1]; [10],128 ± 8 g/L
same,MON: Monocyte,[1]; [10],5.8 ± 1.0%
same,RBC: Red blood cell count,[1]; [10],5.96 ± 0.13 ×10^12/L
same,RET: Reticulocytes,[1]; [10],0.83 ± 0.23%
same,APTT: Activated partial thromboplastin time,[1]; [11],12.8 ± 0.5 s
same,FIB: Fibrinogen,[1]; [11],4.84 ± 0.89 g/L
same,HCT: Hematocrit,[1]; [11],41.7 ± 2.0%
same,HGB: Hemoglobin concentration,[1]; [11],139 ± 6 g/L
same,MON: Monocyte,[1]; [11],6.0 ± 1.8%
same,RBC: Red blood cell count,[1]; [11],6.01 ± 0.31 ×10^12/L
same,RET: Reticulocytes,[1]; [11],0.86 ± 0.17%
same,APTT: Activated partial thromboplastin time,"[1]; dogs, 40 mg/kg/day oral, d14",16.8 ± 0.7 s
same,FIB: Fibrinogen,"[1]; dogs, 40 mg/kg/day oral, d14",7.19 ± 1.58 g/L
same,HCT: Hematocrit,"[1]; dogs, 40 mg/kg/day oral, d14",35.5 ± 2.6 %
same,HGB: Hemoglobin concentration,"[1]; dogs, 40 mg/kg/day oral, d14",114 ± 8 g/L
same,MON: Monocyte,"[1]; dogs, 40 mg/kg/day oral, d14",9.2 ± 5.3%
same,RBC: Red blood cell count,"[1]; dogs, 40 mg/kg/day oral, d14",5.6 ± 0.36 ×10^12/L
same,RET: Reticulocytes,"[1]; dogs, 40 mg/kg/day oral, d14",0.13 ± 0.11 %
same,APTT: Activated partial thromboplastin time,"[1]; dogs, 40 mg/kg/day oral, d28",12.8 ± 0.8 s
same,FIB: Fibrinogen,"[1]; dogs, 40 mg/kg/day oral, d28",4.93 ± 1.22 g/L
same,HCT: Hematocrit,"[1]; dogs, 40 mg/kg/day oral, d28",32.8 ± 2.8 %
same,HGB: Hemoglobin concentration,"[1]; dogs, 40 mg/kg/day oral, d28",105 ± 9 g/L
same,MON: Monocyte,"[1]; dogs, 40 mg/kg/day oral, d28",11.6 ± 4.5 %
same,RBC: Red blood cell count,"[1]; dogs, 40 mg/kg/day oral, d28",5.00 ± 0.47 ×10^12/L
same,RET: Reticulocytes,"[1]; dogs, 40 mg/kg/day oral, d28",0.51 ± 0.22 %
same,APTT: Activated partial thromboplastin time,[1]; [12],12.9 ± 0.8 s
same,FIB: Fibrinogen,[1]; [12],4.22 ± 1.25 g/L
same,HCT: Hematocrit,[1]; [12],39.7 ± 0.1%
same,HGB: Hemoglobin concentration,[1]; [12],124 ± 1 g/L
same,MON: Monocyte,[1]; [12],6.4 ± 3.5%
same,RBC: Red blood cell count,[1]; [12],5.96 ± 0.06 ×10^12/L
same,RET: Reticulocytes,[1]; [12],0.89 ± 0.65%
same,APTT: Activated partial thromboplastin time,[1]; [13],13.4 ± 0.6 s
same,FIB: Fibrinogen,[1]; [13],3.80 ± 0.84 g/L
same,HCT: Hematocrit,[1]; [13],40.3 ± 3.0%
same,HGB: Hemoglobin concentration,[1]; [13],134 ± 10 g/L
same,MON: Monocyte,[1]; [13],5.0 ± 0.8%
same,RBC: Red blood cell count,[1]; [13],5.92 ± 0.42 ×10^12/L
same,RET: Reticulocytes,[1]; [13],0.92 ± 0.27%
same,APTT: Activated partial thromboplastin time,"[1]; dogs, 80 mg/kg/day oral, d14",16.2 ± 3.0 s
same,FIB: Fibrinogen,"[1]; dogs, 80 mg/kg/day oral, d14",7.06 ± 2.14 g/L
same,HCT: Hematocrit,"[1]; dogs, 80 mg/kg/day oral, d14",33.4 ± 2.6 %
same,HGB: Hemoglobin concentration,"[1]; dogs, 80 mg/kg/day oral, d14",107 ± 8 g/L
same,MON: Monocyte,"[1]; dogs, 80 mg/kg/day oral, d14",19.7 ± 19.7 %
same,RBC: Red blood cell count,"[1]; dogs, 80 mg/kg/day oral, d14","5.09 ± 0.42 ^##^,* ×10^12/L"
same,RET: Reticulocytes,"[1]; dogs, 80 mg/kg/day oral, d14",0.08 ± 0.12 %
same,APTT: Activated partial thromboplastin time,"[1]; dogs, 80 mg/kg/day oral, d28",12.5 ± 0.5 s
same,FIB: Fibrinogen,"[1]; dogs, 80 mg/kg/day oral, d28",6.69 ± 0.62 g/L
same,HCT: Hematocrit,"[1]; dogs, 80 mg/kg/day oral, d28",26.9 ± 1.7 %
same,HGB: Hemoglobin concentration,"[1]; dogs, 80 mg/kg/day oral, d28",86 ± 5 g/L
same,MON: Monocyte,"[1]; dogs, 80 mg/kg/day oral, d28",12.5 ± 2.9 %
same,RBC: Red blood cell count,"[1]; dogs, 80 mg/kg/day oral, d28",4.17 ± 0.33 ×10^12/L
same,RET: Reticulocytes,"[1]; dogs, 80 mg/kg/day oral, d28",0.21 ± 0.16 %
same,APTT: Activated partial thromboplastin time,[1]; [14],12.7 ± 0.9 s
same,FIB: Fibrinogen,[1]; [14],3.72 ± 2.00 g/L
same,HCT: Hematocrit,[1]; [14],37.5 ± 3.1%
same,HGB: Hemoglobin concentration,[1]; [14],126 ± 4 g/L
same,MON: Monocyte,[1]; [14],5.0 ± 1.9%
same,RBC: Red blood cell count,[1]; [14],5.71 ± 0.50 ×10^12/L
same,RET: Reticulocytes,[1]; [14],0.88 ± 0.27%
same,body weight reduced compared with the control group,[2]; week 4,8%
same,body weight reduced compared with the control group,[2]; week 5,15%
same,survival,"[2]; rats, 20-120 mg/kg oral daily, 28 days + 14-day recovery",All rats survived until the scheduled necropsies
